Read-outs that look alike come from different tables or passages of the source.
Key:
[1] = test system: multi-drug resistant (MDR) murine leukemia cell line P388ADR; assay: Inhibition of cell proliferation (GI50) in P388/ADR cells; assay type: cell-based
Experimental: (§1) T-47D, HT29, H1299, MX-1 and MDAMB435 cells were grown and harvested as in Example 29. An aliquot of 90 μL of cells (4.4×10^4 cells/mL) was added to a well of a 96-well microtiter plate containing 5 μL of a 10% DMSO in RPMI-1640 media solution containing 10 nM to 100 μM of N-(4-methoxyphenyl)-N,2-dimethylthieno[2,3-d]pyrimidin-4-amine (1 nM to 10 μM final) or related compounds. An aliquot of […] of cells was added to a well of a 96-well microtiter plate containing 5 μL of a 10% DMSO in RPMI-1640 media solution without compound as the control sample for maximal cell proliferation (LMax). The samples were mixed by agitation and then incubated at 37° C. for 48 h in a 5% CO2-95% humidity incubator. After incubation, the samples were removed from the incubator and 25 μL of CellTiter-Glo™ reagent (Promega) was added. The samples were mixed by agitation and incubated at room temperature for 10-15 min. Plates were then read using a luminescent plate reader (Model SPECTRAfluor Plus, Tecan) to give Ltest values.
(§2) The samples were mixed by agitation and then incubated at 37° C. for 0.5 h in a 5% CO2-95% humidity incubator. After incubation, the samples were removed from the incubator and 25 μL of CellTiter-Glo™ reagent (Promega) was added. The samples were mixed by agitation and incubated at […] room temperature in a 5% CO2-95% humidity incubator. […] was read as above, (Lstart) defining luminescence for initial cell number used as baseline in GI50 determinations. ps Calculation:
(§3) GI50 (dose for 50% inhibition of cell proliferation) is the concentration where [(LTest-LStart)/(LMax-LStart)]=0.5.
(§4) Several compounds were tested in other cancer cell lines, including human sarcoma cell line MES-SA and multi-drug resistant (MDR) human sarcoma cell line MES-SA/ADR, murine leukemia cell line P388 and multi-drug resistant (MDR) murine leukemia cell line P388ADR, and the data are summarized in Table IV.

[2] = test system: human breast cancer cell line T-47D; assay: Caspase cascade activation (DEVD-R110 fluorogenic substrate) in T-47D cells; assay type: cell-based; settings: 24 h, read-out: Caspase Activation Potency EC50 (nM) (24 h) T-47D
Experimental: (§5) Human breast cancer cell line T-47D, human lung cancer cell line H1299 and human hepatocellular carcinoma cell line SNU398 were grown according to media component mixtures designated by American Type Culture Collection+10% FCS (Invitrogen Corporation), in a 5% CO2-95% humidity incubator at 37° C. T-47D and H1299 cells were maintained at a cell density between 50 and 80% confluency at a cell density of 0.1 to 0.6×10^6 cells/mL. Cells were harvested at 600×g and resuspended at 0.65×10^6 cells/mL into appropriate media+10% FCS. An aliquot of 22.5 μL of cells was added to a well of a 384-well microtiter plate containing 2.5 μL of a 10% DMSO in RPMI-1640 media solution containing 0.16 to 100 μM of N-(4-methoxyphenyl)-N, 2-dimethylthieno[3,2-d]pyrimidin-4-amine or other test compound (0.016 to 10 μM final). An aliquot of 22.5 μL of cells was added to a well of a 384-well microtiter plate containing 2.5 μL of a 10 % DMSO in RPMI-1640 media solution without test compound as the control sample. The samples were mixed by agitation and then incubated at 37° C. for 24 h or 48 h in a 5% CO2-95% humidity incubator. After incubation, the samples were removed from the incubator and 25 μL of a solution containing 14 μM of N-(Ac-DEVD)-N′-ethoxycarbonyl-R110 (SEQ ID No.:1) fluorogenic substrate (Cytovia, Inc.; WO99/18856), 20% sucrose (Sigma), 20 mM DTT (Sigma), 200 mM NaCI (Sigma), 40 mM Na PIPES buffer pH 7.2 (Sigma), and 500 μg/mL lysolecithin (Calbiochem) was added. The samples were mixed by agitation and incubated at room temperature. Using a fluorescent plate reader (Model SPECTRAfluor Plus, Tecan), an initial reading (T=0) was made approximately 1-2 min after addition of the substrate solution, employing excitation at 485 nm and emission at 530 nm, to determine the background fluorescence of the control sample. After the 3 h incubation, the samples were read for fluorescence as above (T=3 h).
(§6) The Relative Fluorescence Unit values (RFU) were used to calculate the sample readings as follows: RFU(T=3h)-Control RFU(T=0)=Net RFU(T=3h)
(§7) The activity of caspase cascade activation was determined by the ratio of the net RFU value for N-(4-methoxyphenyl)-N,2-dimethylthieno[3,2-d]pyrimidin-4-amine or other test compound to that of control samples. The EC50 (nM) was determined by a sigmoidal dose-response calculation (Prism 3.0, GraphPad Software Inc.).

[3] = test system: human hepatocellular carcinoma cell line SNU398; assay: Caspase cascade activation (DEVD-R110 fluorogenic substrate) in SNU398 cells; assay type: cell-based
Experimental: as §5, §6, §7
Several compounds were also tested in other cancer cells lines (48 h assay), including human hepatocellular carcinoma cell line SNU398, human colon carcinoma cell line […], human B cell lymphoblastoid cell line Ramos, human Burkitt's lymphoma cell line Namalwa, and cervical cancer cell line HeLa, and the data are summarized in Table II.

[4] = test system: human lung cancer cell line H1299; assay: Caspase cascade activation (DEVD-R110 fluorogenic substrate) in H1299 cells; assay type: cell-based; settings: read-out: Caspase Activation Potency EC50 (nM) (24 h) H1299
Experimental: as §5, §6, §7

[5] = test system: multi-drug resistant (MDR) human sarcoma cell line MES-SA/ADR; assay: Inhibition of cell proliferation (GI50) in MES-SA/ADR cells; assay type: cell-based
Experimental: as §1, §2, §3, §4

[6] = test system: murine leukemia cell line P388; assay: Inhibition of cell proliferation (GI50) in P388 cells; assay type: cell-based
Experimental: as §1, §2, §3, §4

[7] = test system: human sarcoma cell line MES-SA; assay: Inhibition of cell proliferation (GI50) in MES-SA cells; assay type: cell-based
Experimental: as §1, §2, §3, §4

[8] = test system: MDAMB435 cells; assay: Inhibition of cell proliferation (GI50, CellTiter-Glo) in MDAMB435 cells; assay type: cell-based; settings: MDAMB435, 48 h incubation, read-out: GI50 in Cancer Cells GI50 (nM) MDAMB435
Experimental: as §1, §2, §3

[9] = test system: H1299 cells; assay: Inhibition of cell proliferation (GI50, CellTiter-Glo) in H1299 cells; assay type: cell-based, human; settings: H1299, 48 h incubation, read-out: GI50 in Cancer Cells GI50 (nM) H1299
Experimental: as §1, §2, §3

[10] = test system: HT29 cells; assay: Inhibition of cell proliferation (GI50, CellTiter-Glo) in HT29 cells; assay type: cell-based; settings: HT29, 48 h incubation, read-out: GI50 in Cancer Cells GI50 (nM) HT29
Experimental: as §1, §2, §3

[11] = test system: T-47D cells; assay: Inhibition of cell proliferation (GI50, CellTiter-Glo) in T-47D cells; assay type: cell-based, human; settings: T47D, 48 h incubation, read-out: GI50 in Cancer Cells GI50 (nM) T47D
Experimental: as §1, §2, §3

[12] = test system: MX-1 cells; assay: Inhibition of cell proliferation (GI50, CellTiter-Glo) in MX-1 cells; assay type: cell-based; settings: MX1, 48 h incubation, read-out: GI50 in Cancer Cells GI50 (nM) MX1
Experimental: as §1, §2, §3

[13] = test system: human lymphoma cell line Raji; assay: Caspase cascade activation in Raji cells; assay type: cell-based; settings: 48 h, read-out: Caspase Activation Potency EC50 (nM) (48 h) Raji
Experimental: (§8) Human breast cancer cell line T-47D, human lung cancer cell line H1299 and human hepatocellular carcinoma cell line SNU398 were grown according to media component mixtures designated by American Type Culture Collection+10% FCS (Invitrogen Corporation), in a 5% CO2-95% humidity incubator at 37° C. T-47D and H1299 cells were maintained at a cell density between 50 and 80% confluency at a cell density of 0.1 to 0.6×10^6 cells/mL. Cells were harvested at 600×g and resuspended at 0.65×10^6 cells/mL into appropriate media+10% FCS. […] Using a fluorescent plate reader (Model SPECTRAfluor Plus, Tecan), an initial reading (T=0) was made approximately 1-2 min after addition of the substrate solution, employing excitation at 485 nm and emission at 530 nm, to determine the background fluorescence of the control sample. After the 3 h incubation, the samples were read for fluorescence as above (T=3 h).
as §6
as §7, with “Inc.). […]” for “Inc.).”

[14] = test system: HCT116; assay: Caspase cascade activation in HCT116 cells; assay type: cell-based; settings: Homo sapiens, HCT-116; HCT116, 48 h; read-out: Caspase Activation Potency EC50 (nM) (48 h) HCT116
Experimental: as §8, §6
as §7, with “Inc.). […]” for “Inc.).”

[15] = test system: cervical cancer cell line HeLa; assay: Caspase cascade activation in HeLa cells; assay type: cell-based; settings: Homo sapiens, 48 h, read-out: Caspase Activation Potency EC50 (nM) (48 h) HeLa
Experimental: as §8, §6
as §7, with “Inc.). […]” for “Inc.).”

[16] = test system: human Burkitt's lymphoma cell line Namalwa; assay: Caspase cascade activation in Namalwa cells; assay type: cell-based; settings: Burkitts lymphoma cell, 48 h, read-out: Caspase Activation Potency EC50 (nM) (48 h) Namalwa
Experimental: as §8, §6
as §7, with “Inc.). […]” for “Inc.).”

[17] = test system: human B cell lymphoblastoid cell line Ramos; assay: Caspase cascade activation in Ramos cells; assay type: cell-based; settings: 48 h, read-out: Caspase Activation Potency EC50 (nM) (48 h) Ramos
Experimental: as §8, §6
as §7, with “Inc.). […]” for “Inc.).”

[18] = Homo sapiens, SNU-398, SNU398, 24 h, read-out: Caspase Activation Potency EC50 (nM) (24 h) SNU398
[19] = Homo sapiens, SNU-398, SNU398, 48 h, read-out: Caspase Activation Potency EC50 (nM) (48 h) SNU398

Row | Structure (SMILES) | GI50 in Multi-Cancer Cells EC50 (nM) P388/ADR [1] [nM] | EC50 ([2]; Homo sapiens, T47D) [nM] | EC50 [3, 18] [nM] | EC50 ([4]; Homo sapiens, NCI-H1299, 24 h) [nM] | GI50 in Multi-Cancer Cells EC50 (nM) MES-SA/ADR [5] [nM] | GI50 in Multi-Cancer Cells EC50 (nM) P388 [6] [nM] | GI50 in Multi-Cancer Cells EC50 (nM) MES-SA [7] [nM] | EC50 [3, 19] [nM] | EC50 [14] [nM] | EC50 [15] [nM] | other results
1 | COc1ccc(N(C)c2nc(C)nc3ccsc23)cc1 [Example 1, N-(4-Methoxyphenyl)-N,2-dimethylthieno[3,2-d]pyrimidin-4-amine] | 16 | 14 | 28 | 24 | 13 | 15 | 12 |  |  |  | 
2 | COc1ccc(N(C)c2nc(C)nc3scc(C)c23)cc1 [Example 4, N-(4-Methoxyphenyl)-N,2,5-trimethylthieno[2,3-d]pyrnmidin-4-amine] |  |  |  |  |  |  |  |  |  |  | EC50 [2]: 4 nM; EC50 ([3]; SNU398, 24 h, read-out: Caspase Activation Potency EC50 (nM) (24 h) SNU398): 4 nM; GI50 [8]: 5 nM; EC50 ([4]; H1299, 24 h): 9 nM; GI50 [9]: 2 nM; GI50 [10]: 5 nM; GI50 [11]: 5 nM; GI50 [12]: 5 nM
3 | COc1ccc(N(C)c2nc(C)nc3sccc23)cc1.Cl [Example 5, N-(4-Methoxyphenyl)-N,2-dimethylthieno[2,3-d]pyrimidin-4-amine hydrochloride] | 4 | 8 | 12 | 14 | 5 | 7 | 3 | 9 | 27 | 8 | EC50 [13]: 20 nM; EC50 [16]: 20 nM; EC50 [17]: 27 nM
4 | COc1ccc(N(C)c2ncnc3ccsc23)cc1 [Example 6, N-(4-Methoxyphenyl)-N-methylthieno[3,2-d]pyrimidin-4-amine] | 105 | 45 | 123 | 56 | 100 | 74 | 58 |  |  |  | GI50 ([8]; Homo sapiens, MDA-MB-435): 16 nM; GI50 ([9]; Homo sapiens, NCI-H1299): 38 nM; GI50 ([10]; Homo sapiens, HT-29): 40 nM; GI50 ([11]; Homo sapiens): 4 nM; GI50 ([12]; Homo sapiens): 40 nM
5 | COc1ccc(N(C)c2nc(C)nc3sc(C)c(C)c23)cc1 [Example 24, N-(4-Methoxyphenyl)-N,2,5,6-tetramethylthieno[2,3-d]pyrimidin-4-amine] |  | 17 | 27 | 59 |  |  |  | 16 | 15 | 30 | 

From patent US20070213305A1, “N-alkyl-N-aryl-thienopyrimidin-4-amines and analogs as activators of caspases and inducers of apoptosis and the use thereof” (Cytovia, Inc., priority 2005, published 2007)
